Measured values reported in publication PMC11356839, “The Synthesis of SNAC Phenolate Salts and the Effect on Oral Bioavailability of Semaglutide” (Molecules, 2024).
Values belong to the compound of their own block, whether it stands above or below them.

Columns and labels:
[1] = clinical study, cited from earlier work
Source text: Preclinical studies reached similar conclusions, although with slightly different values. It is important to remember that the study model, as well as the specific drug being investigated, plays a role in the results, as the drug’s properties and size also affect its absorption. Semaglutide, being ...

[2] = dogs, semaglutide formulated with SNAC tablet; cited from earlier work
Source text: The professional literature has contained studies concerning the mechanism of SNAC to enhance permeability. […] SNAC increases lipophilicity of the formulation and causes a local increase in pH via a buffering action.

[3] = rat, in vivo
Procedure: All compounds are powders.
IV solution was prepared by dissolving semaglutide in water containing disodium phosphate (0.014% w/v), propylene glycol (0.144% w/v), and phenol (0.056% w/v). The solution was diluted by 3 to reach semaglutide concentration of 0.046mg/mL and filtrated by a sterile 0.22 μm syringe filter.
Pharmacokinetic study protocol: Male Wistar rats (275–300 g, Harlan, Israel) were kept under a 12 h light/dark cycle, with free access to food and water. Animals were anesthetized, and an indwelling cannula was placed into the right jugular vein for systemic blood sampling. The cannula was tunneled beneath the skin and exteriorized at the dorsal part of the neck. The animals were transferred to individual cages to recover overnight (12–18 h). Throughout the experiments, free access to food was available 4 h post-oral administration.
Oral SNAC or salt formulations were dispersed in distilled water and then administrated by oral gavage (~1.2 mL for a rat to get semaglutide dose of 12 mg/kg). Blood samples (0.36 mL) were obtained by intravenous cannula, placed into the jugular vein. In the case of oral administration, samples were taken at 5 min pre-dose intervals and at different time points post-dose, according to the pharmacokinetic profile (no more than 10% of rat blood volume was drawn). To prevent dehydration, physiological solutions were administered, following each blood sampling. Plasma was separated by centrifugation (4000 rpm, 7 min, 4 °C) and stored at −20 °C until use.
Plasma samples were analyzed by a developed LC-MS method for semaglutide.
Absolute bioavailability values and other pharmacokinetic observations were assessed by comparison to intravenous bolus of semaglutide.
Semaglutide in plasma was performed in an Eppendorf® tube by mixing 150 μL of the plasma sample with 150 μL acetonitrile (ACN) and 15 μL of 5% formic acid (FA) and vortexed for 5 min. The tube was centrifuged at 15 °C, 6000 rpm for 6 min. Then, 160 μL of the supernatant was collected in a new tube. A second extraction was performed for the remaining precipitant by adding 60 μL of 5% FA, followed by mixing and centrifugation. Supernatant, 50 μL, was transferred into a tube. The solvent was evaporated to dryness, reconstituted with 50 μL 5% FA, and analyzed by an LC-MS system. Semaglutide standards were prepared by spiking semaglutide solutions in 5% FA into plasma to obtain final concentrations of 1–0.005 μg/mL. The same extraction procedure was performed on the standards as well.
MS/MS analyses were determined on a Sciex (Framingham, MA, USA) QTRAP® 6500^+ mass spectrometer). The chromatography analysis was performed using reverse-phase conditions using a Shimadzu (Kyoto, Japan) UHPLC System, consisting of a Shimadzu CBM-20A communication bus module, Nexera X2 LC-30AD pump, including a Shimadzu DGU-20A5R degasser, a Shimadzu SIL-30AC autosampler, and a Shimadzu CTO-20AC column oven. Liquid chromatography separation was obtained using 10 μL injections of samples onto an XBridge Peptide BEH C18 column (3.5 µm 300Å, 50 × 2.1 mm) from Waters Corp. (Milford, MA, USA), protected by a SecurityGuard™ (Phenomenex, Torrance, CA, USA) cartridge (C18, 2 × 2.1 mm). The column was maintained at 40 °C during the entire analysis. Gradient elution mobile phases consisted of 0.1% formic acid in water (Phase A) and 0.1% formic acid in methanol (Phase B). A flow rate of 0.2 mL/min was applied with a linear gradient from 60% to 80% B over 3.5 min and then held at 80% B for additional 4.5 min. The column was then equilibrated for 6 min at starting conditions prior to the injection of the next sample. The gradient elution program (0.2 mL/min) is described in Table 1.

Compound: vitamin B12
absolute absorption, formulation with SNAC ([1]; oral vitamin B12 affected by SNAC): 5% | absolute absorption, commercial product ([1]; oral vitamin B12 commercial product): 2%

semaglutide absorption after oral administration not including SNACs [3]: negligible semaglutide absorption
Compound: CC[C@H](C)[C@H](NC(=O)[C@H](Cc1ccccc1)NC(=O)[C@H](CCC(=O)O)NC(=O)[C@H](CCCCNC(=O)COCCOCCNC(=O)COCCOCCNC(=O)CC[C@H](NC(=O)CCCCCCCCCCCCCCCCC(=O)O)C(=O)O)NC(=O)[C@H](C)NC(=O)[C@H](C)NC(=O)[C@H](CCC(N)=O)NC(=O)CNC(=O)[C@H](CCC(=O)O)NC(=O)[C@H](CC(C)C)NC(=O)[C@H](Cc1ccc(O)cc1)NC(=O)[C@H](CO)NC(=O)[C@H](CO)NC(=O)[C@@H](NC(=O)[C@H](CC(=O)O)NC(=O)[C@H](CO)NC(=O)[C@@H](NC(=O)[C@H](Cc1ccccc1)NC(=O)[C@@H](NC(=O)CNC(=O)[C@H](CCC(=O)O)NC(=O)C(C)(C)NC(=O)[C@@H](N)Cc1cnc[nH]1)[C@@H](C)O)[C@@H](C)O)C(C)C)C(=O)N[C@@H](C)C(=O)N[C@@H](Cc1c[nH]c2ccccc12)C(=O)N[C@@H](CC(C)C)C(=O)N[C@H](C(=O)N[C@@H](CCCNC(=N)N)C(=O)NCC(=O)N[C@@H](CCCNC(=N)N)C(=O)NCC(=O)O)C(C)C [semaglutide, Semaglutide]
semaglutide concentration underneath the tablet compared to 6 cm at a further distance [2]: 10 fold

AUC0−8 ([3]; po, 12 mg/kg): 5.083 ± 1.478 µg·h/mL | AUC0−∞ ([3]; po, 12 mg/kg): 7.729 ± 2.928 µg·h/mL | Cmax ([3]; po, 12 mg/kg): 0.945 ± 0.295 µg/mL | fold increase in AUC0−8 over the original SNAC formulation ([3]; po, 12 mg/kg): ~ 3 fold | fold increase in AUC0−∞ over the original SNAC formulation ([3]; po, 12 mg/kg): ~ 4 fold | fold increase in F% over the original SNAC formulation ([3]; po, 12 mg/kg): ~ 4 fold
Compound: SNAC–phosphatidylcholine [PC]
